Results: US20020137891A1, “Protein scaffold and its use to multimerise monomeric polypeptides” (priority 1999, published 2002)

Test system: bacteriophage λ (b2cI)
Assay: Growth (plaque formation) of bacteriophage λ at 30° C. in transformed wild-type and groEL mutant strains
Type: cell-based, E. coli
Excerpt: Bacterial and bacteriophage strains. The E. coli strains used in this study were: C41(DE3), a mutant of BL21(DE3) capable of expressing toxic genes (Miroux, B. & Walker, J. E. (1996) J. Mol. Biol. 260, 289-298); SV2 (B178groEL44), SV3 (B178groEL59) and SV6 (B178groEL673): isogenic strains carrying temperature-sensitive alleles of groEL; SV1(=B178) (Georgopoulos, C., Hendrix, R. W., Casjens, S. R. & Kaiser, A. D. (1973) J. Mol. Biol. 76, 45-60), AI90 (ΔgroEL::kan^R) [pBAD-EL] (Ivic, A., Olden, D., Wallington, E. J. & Lund, P. A. (1997) Gene 194, 1-8), and TG1 (Gibson, T. J. (1984) Ph.D. thesis, University of Cambridge, U.K). Bacteriophage λb2cI (Zeilstra-Ryalls, J., Fayet, O., Baird, L. & Georgopoulos, C. (1993) J. Bacteriol. 175, 1134-1143) was used according to standard methods (Arber, W., Enquist, L., Hohn, B., Murray, N. E. & Murray, K. (1983) in Lambda II., ed. R. W. Hendrix, J. W. r., F. W. Stahl and R. A. Weisberg (Cold Spring Harbor Laboratory, Cold Spring Harbor, N.Y.), pp. 433-466); plaque formation was assayed at 30° C. T4D0, a derivative of bacteriophage T4 (Zeilstra-Ryalls, J., Fayet, O., Baird, L. & Georgopoulos, C. (1993) J. Bacteriol. 175, 1134-1143), was used according to standard methods (Karam, J. D. (1994) Molecular biology of bacteriophage T4. (American Society for Microbiology, Washington, D.C.)); plaque formation was assayed at 37° C.
Bacteriophage λ requires the chaperonins GroES and GroEL for protein folding during morphogenesis; bacteriophage T4 requires GroEL and Gp31, the latter being encoded by the bacteriophage genome (Zeilstra-Ryalls, J., Fayet, O. & Georgopoulos, C. (1991) Annu. Rev. Microbiol. 45, 301-325). Nine groE alleles which fail to support λ growth have been sequenced (Zeilstra-Ryalls, J., Fayet, O., Baird, L. & Georgopoulos, C. (1993) J. Bacteriol. 175, 1134-1143). We examined the ability of MC7, over-expressed from the constitutive tet promoter on a high-copy number vector (see FIG. 2), to complement three mutant groEL alleles for plaque formation by λ (b2cI) at 30° C. (Table 3) and T4 at 37° C. (Table 4).

Substance: GroEL (1-548): E. coli molecular chaperone, 14 subunits of 57.5 kD in two seven membered rings [reference compound]
- Complementation of groEL mutant strains for bacteriophage λ growth (in words): weak complementation of λ growth in SV2 (groEL44) and SV3 (groEL59; Ser201→Phe)
- Effect of over-expression on plaque formation by bacteriophage λ in SV1 (groE^+) (in words): suffices to inhibit λ growth
- Growth of bacteriophage λ, SV1 (groEL^+) (pJC plasmid): − (no visible plaques (<10^−4))
- Growth of bacteriophage λ, SV2 groEL44 (pJC plasmid): + (10-fold fewer plaques, or plaque size reduced relative to wild-type groEL^+ strain, or both)
- Growth of bacteriophage λ, SV3 GroEL59 (pJC plasmid): ++ (5-fold fewer plaques relative to wild-type groEL^+ strain, or both)
- Growth of bacteriophage λ, SV6 groEL673 (pJC plasmid): +/− (10^2-fold fewer plaques and plaque size reduced relative to wild-type groEL^+ strain)
